Assay results from patent US11180494B2, “Substituted amino acids as integrin inhibitors” (Pliant Therapeutics, Inc., priority 2018, dated 2021).

Molecular target: human integrin αvβ6 (Homo sapiens (Human), UniProt P06756+P18564)
Assay: Proximity-based integrin receptor binding assay (ALPHASCREEN) for inhibitor potency
Conditions: inhibition of binding of TGF-b1 LAP to human integrin αvβ6; values given in ranges
In short: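 AlphaScreen: integrin, compound, TGF-b1 LAP, biotinylated anti-LAP antibody and acceptor beads incubated 2 hours, then streptavidin donor beads 30 minutes, at room temperature in 50 mM Tris-HCl pH 7.5, 0.1% BSA, 1 mM CaCl2 and MgCl2. Excitation 680 nm, emission 520-620 nm; IC50 by four-parameter logistic fit.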

Sequence of human integrin αvβ6 (P06756 31-992): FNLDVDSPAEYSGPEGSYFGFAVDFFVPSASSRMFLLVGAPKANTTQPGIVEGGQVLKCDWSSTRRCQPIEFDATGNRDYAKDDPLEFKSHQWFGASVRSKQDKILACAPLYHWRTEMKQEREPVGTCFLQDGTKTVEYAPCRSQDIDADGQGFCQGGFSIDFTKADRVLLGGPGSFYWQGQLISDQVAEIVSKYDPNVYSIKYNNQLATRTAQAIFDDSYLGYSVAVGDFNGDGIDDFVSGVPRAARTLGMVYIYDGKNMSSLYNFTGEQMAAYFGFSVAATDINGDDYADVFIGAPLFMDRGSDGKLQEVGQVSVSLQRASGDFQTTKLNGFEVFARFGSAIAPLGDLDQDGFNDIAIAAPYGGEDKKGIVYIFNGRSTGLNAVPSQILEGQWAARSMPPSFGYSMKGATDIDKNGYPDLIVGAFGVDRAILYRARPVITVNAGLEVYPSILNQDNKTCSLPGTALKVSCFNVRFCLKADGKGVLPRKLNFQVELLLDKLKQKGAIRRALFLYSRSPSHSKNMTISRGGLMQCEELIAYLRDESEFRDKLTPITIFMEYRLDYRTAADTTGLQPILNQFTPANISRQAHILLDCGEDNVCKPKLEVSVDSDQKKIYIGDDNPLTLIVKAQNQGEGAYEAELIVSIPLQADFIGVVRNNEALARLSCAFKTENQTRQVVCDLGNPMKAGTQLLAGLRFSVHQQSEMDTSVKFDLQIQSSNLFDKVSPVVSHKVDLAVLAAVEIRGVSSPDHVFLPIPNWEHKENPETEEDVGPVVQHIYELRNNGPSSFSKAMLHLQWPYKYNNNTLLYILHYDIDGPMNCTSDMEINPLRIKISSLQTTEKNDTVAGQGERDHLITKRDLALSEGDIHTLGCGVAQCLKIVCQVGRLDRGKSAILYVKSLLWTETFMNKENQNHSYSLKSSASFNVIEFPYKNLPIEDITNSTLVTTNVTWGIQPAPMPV
Sequence of human integrin αvβ6 (P18564 22-707): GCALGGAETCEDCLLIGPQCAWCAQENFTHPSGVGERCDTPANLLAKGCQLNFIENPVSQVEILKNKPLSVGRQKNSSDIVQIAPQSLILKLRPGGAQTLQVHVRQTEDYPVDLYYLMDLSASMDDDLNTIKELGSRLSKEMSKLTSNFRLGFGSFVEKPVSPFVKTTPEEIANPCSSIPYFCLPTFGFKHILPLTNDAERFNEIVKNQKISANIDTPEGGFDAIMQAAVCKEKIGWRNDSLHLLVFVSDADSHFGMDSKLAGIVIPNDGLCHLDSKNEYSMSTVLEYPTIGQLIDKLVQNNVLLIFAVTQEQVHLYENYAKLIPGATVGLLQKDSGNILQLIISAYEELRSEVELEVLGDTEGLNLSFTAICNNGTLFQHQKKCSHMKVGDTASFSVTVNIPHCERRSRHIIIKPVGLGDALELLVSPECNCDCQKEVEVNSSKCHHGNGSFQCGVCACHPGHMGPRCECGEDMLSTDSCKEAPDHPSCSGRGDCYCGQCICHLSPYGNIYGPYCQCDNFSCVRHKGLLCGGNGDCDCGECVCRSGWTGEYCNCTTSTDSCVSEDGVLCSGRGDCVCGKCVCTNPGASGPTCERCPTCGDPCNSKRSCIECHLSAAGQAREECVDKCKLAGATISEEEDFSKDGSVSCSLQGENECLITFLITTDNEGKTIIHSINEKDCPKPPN

Molecule | IC50 [µM]
CC(C)(C)OC(=O)NC(CCO[C@H]1C[C@H](CCc2ccc3c(n2)NCCC3)C1)C(=O)O (stereo partly drawn) [Example 12A, N-(tert-butoxycarbonyl)-O-(trans-3-(2-(5,6,7,8-tetrahydro-1,8-naphthyridin-2-yl)ethyl)cyclobutyl)homoserine] | 0.05 to 0.25
CC(C)(C)c1ccnc(N[C@@H](CCO[C@H]2C[C@H](CCc3ccc4c(n3)NCCC4)C2)C(=O)O)n1 [Example 226, N-(4-(tert-butyl)pyrimidin-2-yl)-O-(trans-3-(2-(5,6,7,8-tetrahydro-1,8-naphthyridin-2-yl)ethyl)cyclobutyl)homoserine] | 0.25 to 1
O=C(O)C(CCO[C@H]1C[C@H](CCc2ccc3cccnc3n2)C1)Nc1ncnc2ccccc12 (stereo partly drawn) [Example 227, O-(trans-3-(2-(1,8-naphthyridin-2-yl)ethyl)cyclobutyl)-N-(quinazolin-4-yl)homoserine] | 0.25 to 1
N-isonicotinoyl-O-(trans-3-(2-(5,6,7,8-tetrahydro-1,8-naphthyridin-2-yl)ethyl)cyclobutyl)-D-homoserine [Compound 58] | > 1
N—((R)-2-hydroxy-2-phenylacetyl)-O-(4-(5,6,7,8-tetrahydro-1,8-naphthyridin-2-yl)butyl)-D-homoserine [Compound 77] | > 1

The next lines start with the values.

IC50 [µM] | Molecule
< 0.05 | O=C(O)[C@H](CCO[C@H]1C[C@H](CCc2ccc3c(n2)NCCC3)C1)Nc1ncnc2ccccc12 [Example 224, N-(quinazolin-4-yl)-O-(trans-3-(2-(5,6,7,8-tetrahydro-1,8-naphthyridin-2-yl)ethyl)cyclobutyl)homoserine]
0.25 to 1 | CC(C)(C)c1nccc(N[C@@H](CCO[C@H]2C[C@H](CCc3ccc4c(n3)NCCC4)C2)C(=O)O)n1 [Example 225, N-(2-(tert-butyl)pyrimidin-4-yl)-O-(trans-3-(2-(5,6,7,8-tetrahydro-1,8-naphthyridin-2-yl)ethyl)cyclobutyl)homoserine]
< 0.05 | O=C(O)C(CCO[C@H]1C[C@H](CCc2ccc3cccnc3n2)C1)Nc1ncnc2ccccc12 (stereo partly drawn) [Example 228, O-(trans-3-(2-(1,8-naphthyridin-2-yl)ethyl)cyclobutyl)-N-(quinazolin-4-yl)homoserine]
0.05 to 0.25 | CC(C)(C)c1cc(N[C@@H](CCO[C@H]2C[C@H](CCc3ccc4c(n3)NCCC4)C2)C(=O)O)ncn1 [Example 229, N-(6-(tert-butyl)pyrimidin-4-yl)-O-(trans-3-(2-(5,6,7,8-tetrahydro-1,8-naphthyridin-2-yl)ethyl)cyclobutyl)homoserine]
